Assay results reported in the NIST ThermoML archive (doi:10.1007/s10765-007-0241-8).

Details: Liquid; for thermal conductivity: Hot wire method; for mass density: Constant-volume piezometry

CCCCn1cc[n+](C)c1.F[P-](F)(F)(F)(F)F [1-butyl-3-methylimidazolium hexafluorophosphate]
Details	mass density, 100 kPa [kg/m3]	mass density, 10000 kPa [kg/m3]	mass density, 20000 kPa [kg/m3]	thermal conductivity, 0.1 kPa [W/m/K]	thermal conductivity, 10 kPa [W/m/K]	thermal conductivity, 20 kPa [W/m/K]
294.9 K	1369	1373	1378	0.145	0.146	0.148
315 K	1352	1357	1362	0.145	0.146	0.147
335.1 K	1336	1341	1347	0.144	0.145	0.147

CCCCCCn1cc[n+](C)c1.F[P-](F)(F)(F)(F)F [1-hexyl-3-methylimidazolium hexafluorophosphate]
Details	mass density, 294.1 K [kg/m3]	mass density, 315.1 K [kg/m3]	mass density, 335.2 K [kg/m3]	thermal conductivity, 294.1 K [W/m/K]	thermal conductivity, 315.1 K [W/m/K]	thermal conductivity, 335.2 K [W/m/K]
100 kPa	1294	1278	1262	0.145	0.145	0.144
10000 kPa	1300	1284	1268	0.147	0.146	0.146
20000 kPa	1306	1290	1274	0.148	0.148	0.147

CCCCCCCC[n+]1ccn(C)c1.F[P-](F)(F)(F)(F)F [1-octyl-3-methylimidazolium hexafluorophosphate]
Details	mass density, 295.1 K [kg/m3]	mass density, 315.1 K [kg/m3]	mass density, 335.2 K [kg/m3]	thermal conductivity, 295.1 K [W/m/K]	thermal conductivity, 315.1 K [W/m/K]	thermal conductivity, 335.2 K [W/m/K]
100 kPa	1236	1222	1207	0.145	0.145	0.144
10000 kPa	1243	1228	1213	0.147	0.146	0.146
20000 kPa	1249	1234	1219	0.147	0.147	0.147

CCCCCCCC [octane]
100 kPa
Details	thermal conductivity [W/m/K]
294.5 K	0.126
314.7 K	0.121
334.8 K	0.115

Cc1ccccc1 [toluene]
thermal conductivity [W/m/K]
Details	294.2 K	314.1 K	334.4 K
100 kPa	0.132	0.127	0.122
10000 kPa	0.136	0.131	0.126
20000 kPa	0.139	0.135	0.129
